Earlier results, collected in patent publication US20220031840A1, “Method of Treatment” (HaemaLogix Pty Ltd, priority 2018, published 2022).

Tested on: CXCL10
Conditions: elotuzumab phase I study; cited from earlier work

elotuzumab: antibody named as additional anti-cancer agent; phase I study cited (Zonder et al. 2012)
Drug-induced change in CXCL10 levels: drug-induced increases
